Reference: patent EP3074024B1, “ANTIMICROBIAL COMPOSITIONS FOR USE IN PRODUCTS FOR PETROLEUM EXTRACTION, PERSONAL CARE, WOUND CARE AND OTHER APPLICATIONS” (Agienic Inc., priority 2013, dated 2015)

Columns and labels:
[1] = room temperature; cited from earlier work
[2] = tested on: Desulfovibrio vulgaris (ATCC 29579); assay: Activity against sulfate reducing bacteria (3-tube MPN); type: cell-based; details: 10ppm; one hour of contact time; starting 2x10^7 mpn/ml; SRB2 media
Description: D. vulgaris was cultured for 2 days prior to experiment in SRB 2 media (Intertek). From this culture, 2 ml of inoculum was added to 18 ml anaerobic phosphate buffered saline (PBS).
Each concentration was tested in duplicate. […] The sealed bottles were incubated at room temperature (23°C) without agitation.
An initial sample was taken from the positive control to establish a starting concentration of bacteria for the experiment. 0.5 ml samples were taken at 1 hour time point and diluted in 4.5 ml anaerobic Dey/Engely (D/E) neutralizing broth to neutralize the Cu bacteriocide. A 1:10 dilution series was made using anaerobic PBS. Bacterial numbers were quantified by a 3-tube most probable number (MPN) method. Three tubes of anaerobic modified Baar's media (10 ml each) per dilution were inoculated with 1 ml each from their respective diluted sample. These tubes were incubated at 37°C for 72 hours. Positive samples were evaluated based on the presence of iron sulfide (FeS), which forms a black precipitate as a byproduct of hydrogen sulfide produced by bacterial growth reacting with iron included in the modified Baar's media.
All test media (PBS, D/E and modified Baar's media) were pretreated with 100 µl Oxyrase oxygen scavengers (obtained from Oxyrase Inc, Mansfield, OH) to render the test media anaerobic. […]

## [Cu][Br] [CuBr, Copper bromide]
[1]
  Water solubility: 11 µg/mL

## [Cl][Cu][Cl] [CuCl2, copper (II) chloride]
[2]
  log10 reduction: less than 3 log10

## O=CCCCC=O [gluteraldehyde]
[2]
  log10 reduction: greater than 4.23 log10
